Experimental data: patent publication US20050245527A1, “Nitrogen containing heterocyclic compounds and medicines containing the same” (priority 2002, published 2005)

Columns and labels:
[1] = test system: left saphenous nerve of rats (ectopic firing); assay: Inhibition of ectopic firing; type: in vivo; conditions: Rattus norvegicus, iv; rats with cut left saphenous nerve, urethane anesthesia, compound via catheter in right cervical vein, number of firings in 10 seconds; read-out: Inhibition of ectopic firing (ID50)
Description: <Inhibition of Ectopic Firing>
(1) The inhibitory effect on ectopic firing was evaluated by the following method, with reference to Burchiel, K J., Exp. Neurol., 102, 249-253 (1988).
(2) The left saphenous nerve of rats, in which ectopic firing was observed, was cut near the knee joint, and approximately 3 mm was cut off to avoid reattachment of the cut nerve. After more than a week, the left saphenous nerve was exposed under urethane (1 g/kg body weight) anesthesia, and the proximal part up to approximately 1 cm from the cut site was detached from the surrounding tissue. A catheter was inserted in the right cervical vein beforehand for administration of the compound.
(3) The detached nerve was placed on a platinum hook electrode and wetted with liquid paraffin to avoid drying of the nerve. The electrode was connected to a microelectrode amplifier, and the change in potential was recorded from an oscilloscope through an A/D converter onto a computer. The recorded nerve firing was evaluated based on the number of firings in 10 seconds, using analyzing software (AcqKnowledge).

[2] = test system: sodium channels; type: cell-based; conditions: read-out: IC50 (μM), sodium channel-inhibiting activity; rat fetal cultured hippocampal neurons, SBFI fluorescence in the presence of 4-aminopyridine, 5 minutes after addition, 1 μM tetrodotoxin = 100%

O=c1[nH]ccnc1CN1CCC(COCc2ccccc2F)CC1 [Example 160, 3-[4-(2-Fluorobenzyloxymethyl)piperidino]methyl-1H-pyrazin-2-one]
ED50 [1]: 0.5 to 1 mg/kg | IC50 [2]: 3.5 µM

Cc1cccc(CC(=O)C2CCN(Cc3ncc[nH]c3=O)CC2)c1 [Example 192, 3-[4-[2-(3-Methylphenyl)acetyl]piperidino]methyl-1H-pyrazin-2-one]
ED50 [1]: 0.5 to 1 mg/kg | IC50 [2]: 3.8 µM

O=c1cncc(CCN2CCC(CCc3ccccc3F)CC2)[nH]1 [Example 243, 6-[2-[4-[2-(2-Fluorophenyl)ethyl]piperidino]ethyl]-1H-pyrazin-2-one]
ED50 [1]: < 0.5 mg/kg | IC50 [2]: 5.7 µM

O=c1[nH]ccnc1CN1CCC(c2nc(-c3cccc(F)c3)no2)CC1 [Example 188, 3-[4-[3-(3-Fluorophenyl)-1,2,4-oxadiazol-5-yl]piperidino]methyl-1H-pyrazin-2-one]
ED50 [1]: 0.5 to 1 mg/kg | IC50 [2]: 5 µM

O=c1cncc(CCN2CCC(COc3ccc(F)cc3F)CC2)[nH]1 [Example 239, 6-[2-[4-(2,4-Difluorophenoxymethyl)piperidino]ethyl]-1H-pyrazin-2-one]
ED50 [1]: 0.5 to 1 mg/kg | IC50 [2]: 9.1 µM

O=c1[nH]ccnc1CN1CCC(COc2cc(F)ccc2F)CC1 [Example 151, 3-[4-(2,5-Difluorophenoxymethyl)piperidino]methyl-1H-pyrazin-2-one]
ED50 [1]: 0.5 to 1 mg/kg | IC50 [2]: 2.9 µM

O=c1[nH]ccnc1CN1CCC(CCc2cccc3c2OCC3)CC1 [Example 140, 3-[4-[2-(2,3-Dihydrobenzofuran-7-yl)ethyl]piperidino]methyl-1H-pyrazin-2-one]
ED50 [1]: < 0.5 mg/kg | IC50 [2]: 5.6 µM

O=C(Cc1ccccc1C(F)(F)F)C1CCN(Cc2ncc[nH]c2=O)CC1 [Example 344, 3-[4-[2-[2-(Trifluoromethyl)phenyl]acetyl]piperidino]methyl-1H-pyrazin-2-one]
ED50 [1]: < 0.5 mg/kg | IC50 [2]: 4.4 µM

COc1ccccc1CC(=O)C1CCN(Cc2ncc[nH]c2=O)CC1 [Example 193, 3-[4-[2-(2-Methoxyphenyl)acetyl]piperidino]methyl-1H-pyrazin-2-one]
ED50 [1]: < 0.5 mg/kg | IC50 [2]: 2.9 µM

O=c1[nH]cccc1CN1CCC(O)(COc2ccccc2F)CC1 [Example 253, 3-[4-Hydroxy-4-(2-fluorophenoxymethyl)piperidino]methyl-1H-pyridin-2-one]
ED50 [1]: < 0.5 mg/kg | IC50 [2]: 9.2 µM

O=C(Cc1cccc(F)c1F)C1CCN(Cc2ncc[nH]c2=O)CC1 [Example 200, 3-[4-[2-(2,3-Difluorophenyl)acetyl]piperidino]methyl-1H-pyrazin-2-one]
ED50 [1]: 0.5 to 1 mg/kg | IC50 [2]: 1.6 µM

O=c1[nH]cccc1CN1CCC(O)(C#Cc2ccccc2F)CC1 [Example 258, 3-[4-Hydroxy-4-[(2-fluorophenyl)ethynyl]piperidino]methyl-1H-pyridin-2-one]
ED50 [1]: < 0.5 mg/kg | IC50 [2]: 4.2 µM

O=C(Cc1c(F)cccc1C(F)(F)F)C1CCN(Cc2ncc[nH]c2=O)CC1 [Example 376, 3-[4-[2-[2-Fluoro-6-(trifluoromethyl)phenyl]acetyl]piperidino]methyl-1H-pyrazin-2-one]
ED50 [1]: < 0.5 mg/kg | IC50 [2]: 1.1 µM

O=c1[nH]ccnc1CN1CCC(COc2ccccc2)CC1 [Example 198, 3-[4-(Phenoxymethyl)piperidino]methyl-1H-pyrazin-2-one]
ED50 [1]: < 0.5 mg/kg | IC50 [2]: 1.6 µM

CC(c1ncc[nH]c1=O)N1CCC(C(=O)Cc2ccccc2C(F)(F)F)CC1.O=C(O)C(=O)O (stereo not shown) [Example 394, 3-[1-[4-[2-[2-(Trifluoromethyl)phenyl]acetyl]piperidino]ethyl]-1H-pyrazin-2-one oxalate]
ED50 [1]: < 0.5 mg/kg | IC50 [2]: 2.8 µM

O=c1[nH]ccnc1CN1CCC(CCc2ccccc2F)C1 (stereo not shown) [Example 134, 3-[3-[2-(2-Fluorophenyl)ethyl]pyrrolidino]methyl-1H-pyrazin-2-one]
ED50 [1]: 0.5 to 1 mg/kg | IC50 [2]: 3.1 µM

O=c1cncc(CCN2CCC(COc3ccccc3Cl)CC2)[nH]1 [Example 235, 6-[2-[4-(2-Chlorophenoxymethyl)piperidino]ethyl]-1H-pyrazin-2-one]
ED50 [1]: < 0.5 mg/kg | IC50 [2]: 5 µM

O=C(Cc1c(F)cccc1F)C1CCN(Cc2ncc[nH]c2=O)CC1 [Example 195, 3-[4-[2-(2,6-Difluorophenyl)acetyl]piperidino]methyl-1H-pyrazin-2-one]
ED50 [1]: 0.5 to 1 mg/kg | IC50 [2]: 2 µM

O=C(c1ccccc1F)N(C(=O)c1ccccc1F)C1(O)CCN(Cc2ncc[nH]c2=O)CC1 [Example 214, 2-Fluoro-N-(2-fluorobenzoyl)-N-[4-hydroxy-1-(3-oxo-3,4-dihydro-2-pyrazinylmethyl)piperidin-4-yl]benzamide]
ED50 [1]: 0.5 to 1 mg/kg | IC50 [2]: 8.7 µM

CSc1ccccc1CC(=O)C1CCN(Cc2ncc[nH]c2=O)CC1 [Example 343, 3-[4-[2-[2-(Methylthio)phenyl]acetyl]piperidino]methyl-1H-pyrazin-2-one]
ED50 [1]: < 0.5 mg/kg | IC50 [2]: 3.5 µM

Cc1ccccc1OCC1CCN(Cc2ncc[nH]c2=O)C1.O=C(O)C(=O)O (stereo not shown) [Example 136, 3-[3-(2-Methylphenoxymethyl)pyrrolidino]methyl-1H-pyrazin-2-one oxalate]
ED50 [1]: 0.5 to 1 mg/kg | IC50 [2]: 4.7 µM

O=c1[nH]cc(Cl)cc1CN1CCC(O)(COc2ccccc2F)CC1 [Example 254, 5-Chloro-3-[4-hydroxy-4-(2-fluorophenoxymethyl)piperidino]methyl-1H-pyridin-2-one]
ED50 [1]: 0.5 to 1 mg/kg | IC50 [2]: 8.9 µM

O=C(CC1CCN(Cc2ncc[nH]c2=O)CC1)c1ccccc1Cl [Example 174, 3-[4-[2-(2-Chlorophenyl)-2-oxoethyl]piperidino]methyl-1H-pyrazin-2-one]
ED50 [1]: < 0.5 mg/kg | IC50 [2]: 3.6 µM

Cc1ccccc1OCC1CCCN(Cc2ncc[nH]c2=O)C1 (stereo not shown) [Example 154, 3-[3-(2-Methylphenoxymethyl)piperidino]methyl-1H-pyrazin-2-one]
ED50 [1]: 0.5 to 1 mg/kg | IC50 [2]: 3.1 µM

O=c1cncc(CCN2CCC(COc3cc(F)ccc3F)CC2)[nH]1 [Example 241, 6-[2-[4-(2,5-Difluorophenoxymethyl)piperidino]ethyl]-1H-pyrazin-2-one]
ED50 [1]: 0.5 to 1 mg/kg | IC50 [2]: 5 µM

O=c1[nH]ccnc1CN1CCC(COc2ccccc2OC(F)(F)F)CC1 [Example 167, 3-[4-[2-(Trifluoromethoxy)phenoxymethyl]piperidino]methyl-1H-pyrazin-2-one]
ED50 [1]: < 0.5 mg/kg | IC50 [2]: 2.3 µM

O=C(Cc1ccccc1F)C1CCN(Cc2ncc[nH]c2=O)CC1 [Example 179, 3-[4-[2-(2-Fluorophenyl)acetyl]piperidino]methyl-1H-pyrazin-2-one]
ED50 [1]: < 0.5 mg/kg | IC50 [2]: 4.6 µM

O=c1[nH]cccc1CN1CCC(CO)(CCc2ccccc2)CC1 [Example 256, 3-[4-Hydroxymethyl-4-(2-phenylethyl)piperidino]methyl-1H-pyridin-2-one]
ED50 [1]: 0.5 to 1 mg/kg | IC50 [2]: 5.8 µM

O=c1[nH]ccnc1CN1CCC(C#Cc2ccccc2F)CC1 [Example 170, 3-[4-[(2-Fluorophenyl)ethynyl]piperidino]methyl-1H-pyrazin-2-one]
ED50 [1]: < 0.5 mg/kg | IC50 [2]: 0.4 µM

O=c1[nH]ccnc1CN1CCC(/C=C/c2sccc2Cl)CC1 [Example 168, (E)-3-[4-[2-(3-Chloro-2-thienyl)vinyl]piperidino]methyl-1H-pyrazin-2-one]
ED50 [1]: 0.5 to 1 mg/kg | IC50 [2]: 2.1 µM

O=c1[nH]ccnc1CN1CCC(COc2c(F)cccc2F)CC1 [Example 201, 3-[4-(2,6-Difluorophenoxymethyl)piperidino]methyl-1H-pyrazin-2-one]
ED50 [1]: 0.5 to 1 mg/kg | IC50 [2]: 6.7 µM

COc1ccccc1OCC1CCN(Cc2ncc[nH]c2=O)CC1 [Example 143, 3-[4-(2-Methoxyphenoxymethyl)piperidino]methyl-1H-pyrazin-2-one]
ED50 [1]: < 0.5 mg/kg | IC50 [2]: 3.1 µM

Cc1ccccc1OCC1CCN(CCc2cncc(=O)[nH]2)CC1 [Example 236, 6-[2-[4-(2-Methylphenoxymethyl)piperidino]ethyl]-1H-pyrazin-2-one]
ED50 [1]: < 0.5 mg/kg | IC50 [2]: 7 µM

Cc1ccccc1OCC1CCN(Cc2ncc[nH]c2=O)CC1 [Example 147, 3-[4-(2-Methylphenoxymethyl)piperidino]methyl-1H-pyrazin-2-one]
ED50 [1]: < 0.5 mg/kg | IC50 [2]: 2.5 µM

Cc1ccccc1OCC1(C#N)CCN(Cc2ccc[nH]c2=O)CC1 [Example 122, 1-(2-Oxo-1,2-dihydro-3-pyridylmethyl)-4-(2-methylphenoxymethyl)piperidine-4-carbonitrile]
ED50 [1]: < 0.5 mg/kg

O=c1[nH]ccnc1CN1CCC(CC(F)c2ccccc2F)CC1 (stereo not shown) [Example 178, 3-[4-[2-Fluoro-2-(2-fluorophenyl)ethyl]piperidino]methyl-1H-pyrazin-2-one]
ED50 [1]: < 0.5 mg/kg

O=c1cncc(CCN2CCC(COc3ccccc3F)CC2)[nH]1 [Example 233, 6-[2-[4-(2-Fluorophenoxymethyl)piperidino]ethyl]-1H-pyrazin-2-one]
ED50 [1]: < 0.5 mg/kg

O=c1[nH]ccnc1CN1CCC(COc2ccc(F)cc2F)CC1 [Example 163, 3-[4-(2,4-Difluorophenoxymethyl)piperidino]methyl-1H-pyrazin-2-one]
ED50 [1]: < 0.5 mg/kg

O=c1[nH]cccc1CN1CCC(CCc2ccccc2)(COc2ccccc2F)CC1 [Example 257, 3-[4-(2-Fluorophenoxymethyl)-4-(2-phenylethyl)piperidino]methyl-1H-pyridin-2-one]
ED50 [1]: < 0.5 mg/kg
